{"source": "paper PMC8642446", "about": "(Acta Pharmaceutica Sinica. B, 2021)", "target": "T1, ICAT (inhibitor of β-catenin and T-cell factor; β-catenin-interacting protein 1) (Homo sapiens, UniProt Q9NSA3)", "T1 sequence (Q9NSA3 1-81)": "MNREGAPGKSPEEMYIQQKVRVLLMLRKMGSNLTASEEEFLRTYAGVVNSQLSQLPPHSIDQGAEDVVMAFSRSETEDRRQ", "experiment": "MST with EGFP-ICAT in cell lysate", "type": "binding", "data": [{"smiles": "CC1=CC(=O)[C@@H](O)[C@]2(C)[C@H]3[C@@H](O)[C@H](O)[C@]4(C)OC[C@@]35[C@@H](C[C@@H]12)OC(=O)[C@H](O)[C@]54O", "note": "[BD, Bruceine D]", "values": [{"measurement": "Kd", "result": 33.2, "unit": "µM"}]}]}
